Test results reported in patent publication US20250243174A1, “ANTITUMORAL COMPOUNDS” (PHARMA MAR, S.A., priority 2021, published 2025).

Experiments:
Type in all cases: in vivo
[1] = test system: HCT-116 xenografts; test: Example 7, colon xenograft model HCT-116; conditions: for TV, median (IQR) / Median survival time: iv Q7dx3; for TV, median (IQR): high dose: PM060184 16, Comp. 2 2, Comp. 3 1 mg/kg; for mean time with tumor remission: high dose: compound 2 2.0, compound 3 1.0, PM060184 16 mg/kg
Protocol: (§1) Female athymic nu/nu mice (Harlan Laboratories Models, S.L. Barcelona, Spain or Envigo, Spain) were utilized for all experiments. Animal were housed in individually ventilated cages Sealsafe® Plus, Techniplast S.P.A.), up to ten per cage on a 12-hour light-dark cycle at 21-23° C. and 40-60% humidity. Mice were allowed free access to irradiated standard rodent diet (Tecklad 2914C) and sterilized water. Animals were acclimated for at least 5 days prior to tumor implantation with a tumor cell suspension.
HCT116 cells were maintained in vitro at 37° C., 5% Co2 in McCoy's 5A Medium (Sigma Aldrich, Co.). Culture cells were passage every 3 to 5 days on reaching confluence. Each animal was subcutaneously implanted (on the right flank using 26G needle and a 1 cc syringe) at 4-6 weeks of age with 5×10^6 HCT116 cells suspended in 0.05 mL of a solution consisting of 50% Matrigel® (Corning Incorporated Life Sciences) and 50% medium without serum or antibiotics.
(§2) All treatments were intravenously administered on a weekly basis at their MTD, ¼ MTD and 1/16 MTD (high, medium and low dose).
(§3) Briefly: • 4 to 6 week-old athymic nu/nu female mice were subcutaneously implanted with tumor cells growing in culture. • When tumors reached a certain volume, tumor bearing animals (N=8-10/group) were randomly allocated into treatment groups. • Tumor dimensions and body weights were recorded 2-3 times per week starting from the first day of treatment (Day 0). Treatments producing >20% lethality and/or 20% net body weight loss were considered toxic. Tumor volume was calculated using the equation (a·b^2)/2, where a and b were the longest and shortest diameters, respectively. Animals were euthanized when their tumors reached ca. 2,000 mm^3 and/or severe necrosis was seen. • Median was calculated for tumor volume on each measurement day. • Antitumor effect was assessed comparing tumor volume data from groups following the 1st, 2nd, 3rd study weeks, or more depending on the case, using a two-tailed Mann-Whitney U test. The data are presented as medians and interquartile range (IQR). • Complete tumor regression (CR) was defined when tumor volume<63 mm^3 for 2 or more consecutive measurements. • Treatment tolerability was assessed by monitoring body weight evolution, clinical signs of systemic toxicity as well as evidences of local damage at the injection site.
(§4) PM060184 was provided in the form of freeze-dried vials of lyophilized product. Each vial was reconstituted with water for infusion to a concentration of 2.5 mg/mL.
(§5) Compounds 2 and 3 were provided in the powder form and were solubilized with hydroxy-propyl-β-cyclodextrin (HPβCD), reaching a concentration of 1 mg/ml or 0.2 mg/ml, respectively. Placebo was provided in the form of lyophilised cake containing 1.2 g of hydroxy-propyl-β-cyclodextrin (HPβCD) which was reconstituted with water for infusion.
(§6) In these experiments, compounds 2, 3 and PM060184, as well as placebo, were intravenously administered once per week for 3 consecutive weeks, on Days 0, 7 and 14, whenever it was possible.
The experiment was carried out as previously explained. When tumors reached ca. 195-205 mm^3, tumor bearing animals (N=10/group) were randomly allocated into the following treatment groups:
(§7) Treatments were initiated on Day 0.

[2] = test system: H460 xenografts; test: Example 5, NSCLC xenograft model H460; conditions: for tumor reduction compared to placebo: higher doses 16, 2 or 1 mg/kg; for TV, median (IQR) / Median survival time: iv Q7dx3; for TV, median (IQR): high dose: PM060184 16, Comp. 2 2, Comp. 3 1 mg/kg; for tumor remissions lasted: high dose: compound 2 2.0, compound 3 1.0, PM060184 16 mg/kg
Protocol: as §1
H460 cells were maintained in vitro at 37° C. with 5% CO2 in Dulbecco's Modified Eagle's Medium (Sigma-Aldrich, Co). Culture cells were passaged every 3 to 5 days upon reaching confluence. Each animal was subcutaneously implanted (on the right flank using 26G needle and a 1 cc syringe) at 4-6 weeks of age with 5×10^6 H460 cells suspended in 0.05 mL of a solution consisting of 50% Matrigel® (Corning Incorporated Life Sciences) and 50% medium without serum or antibiotics.
as §2, §3, §4, §5, §6
The experiment was carried out as previously explained. When tumors reached ca. 160-170 mm^3, tumor bearing animals (N=10/group) were randomly allocated into the following treatment groups:
as §7

[3] = MTMD (Maximum Tolerated Multiple Dose) determination; conditions: iv, Q7dx3; female athymic nude mice
Protocol: Female Athymic Nude-Fox1 nu/nu mice (Envigo) were utilized for all experiments. Animals (N=10/cage) were housed in individually ventilated cages (Sealsafe Plus®, Techniplast S.P.A.), on a 12-hour light-dark cycle at 21-23° C. and 40-60% humidity. Mice were allowed free access to irradiated standard rodent diet (Tecklad 2914C) and sterilized water. Animals were acclimated for five days prior to being individually tattoo-identified. Animal protocols were reviewed and approved according to the regional Institutional Animal Care and Use Committees.
Mice were randomly allocated into experimental groups and intravenously administered, once for the MTD (Maximum Tolerated Dose) determination or one administration a week during three consecutive weeks, for the MTMD (Maximum Tolerated Multiple Dose) determination study. The animals were administered with white formulation or with compound dissolved in the experimental formulation at different concentrations. The volume administered was always 10 mL/kg. Once administered, animals were monitored for clinical signs of systemic toxicity, changes in body weight and mortality up to 14 days after the administration.

[4] = high dose: PM060184 16.0, Comp. 2 2.0, Comp. 3 1.0 mg/kg, ud = group not reached mortality
[5] = highest dose: compound 2 2.0, compound 3 1.0 mg/kg
[6] = low dose: PM060184 1.0, Comp. 2 0.125, Comp. 3 0.0625 mg/kg
[7] = medium dose: PM060184 4.0, Comp. 2 0.5, Comp. 3 0.25 mg/kg
[8] = medium-dose: compound 2 0.5, compound 3 0.25 mg/kg
[9] = recorded on Day 9, compound 2 2.0 mg/kg, compound 3 1.0 mg/kg
[10] = compound 2 2.0 mg/kg, compound 3 1.0 mg/kg

SMILES	TV, median (IQR) ([1]; Day 7)	TV, median (IQR) ([1]; Day 14)	TV, median (IQR) ([1]; Day 21)	TV, median (IQR) ([1]; Day 28)	TV, median (IQR) ([1]; Day 35)	Median survival time [1, 4]	mean time with tumor remission [1] [days]	Median survival time [1, 6] [days]	Median survival time [1, 7] [days]	tumor reduction compared to placebo ([2]; Day 7)	TV, median (IQR) ([2]; Day 7)	TV, median (IQR) ([2]; Day 14)	TV, median (IQR) ([2]; Day 21)	TV, median (IQR) ([2]; Day 28)	TV, median (IQR) ([2]; Day 35)	tumor remissions lasted [2]	Median survival time [2, 6] [days]	MTMD [3] [mg/kg]	also measured
COC1=CC[C@@H]([C@@H](C)/C=C(C)/C=C\C=C/C(=O)N[C@H](C(=O)N/C=C\C[C@H](CC=C(C)C)OC(N)=O)C(C)(C)C)OC1=O [Compound 3]	121.6 (86.3-164.8) mm3	55.6 (16.2-82.3) mm3	32.0 (4.0-40.0) mm3	13.5 (4.0-13.5) mm3	13.5 (13.5-13.5) mm3	ud	23.7	14	49	very strong, statistically significant tumor reduction	123.9 (93.4-157.6) mm3	80.3 (71.0-83.5) mm3	59.3 (38.7-62.5) mm3	77.6 (55.3-85.1) mm3	374.8 (257.4-438.2) mm3	more than 45.1 days	14	1.0	animals in complete tumor remission [1, 5]: 100%; animals that reached a complete remission (n/10) [1, 8]: 1/10; complete remission lasted a mean of [1, 8]: 2 days; antitumor activity compared to PM060184-treated group at 16 mg/kg ([1]; once treatments were finalized (days 21 to 35), 2 at 2 mg/kg, 3 at 1 mg/kg): big difference, in terms of antitumor activity, statistically significant; mean body weight reduction [1, 9]: ca. −16.2%; antitumor activity of compound 3 compared to compound 2 ([2]; at the MTD's, 1.0 mg/kg or 2.0 mg/kg): statistically significant higher antitumor activity than compound 2; antitumor activity compared to PM060184 (16 mg/kg) [2, 10]: stronger, statistically significant, antitumor activity; mean time frame during which the animals had tumor remission [2, 10]: 7.8 days; Median survival time ([2]; high dose: PM060184 16.0, Comp. 2 2.0, Comp. 3 1.0 mg/kg, 1 mg/kg): 45.5 days; Median survival time ([2]; high dose: PM060184 16.0, Comp. 2 2.0, Comp. 3 1.0 mg/kg, listed as Comp. 3, 1 mg/kg): 48 days; animals with complete tumor remission [2, 5]: 100%; Median survival time ([2]; medium dose: PM060184 4.0, Comp. 2 0.5, Comp. 3 0.25 mg/kg, 0.25 mg/kg): 40 days; Median survival time ([2]; medium dose: PM060184 4.0, Comp. 2 0.5, Comp. 3 0.25 mg/kg, listed as Comp. 3, 0.25 mg/kg): 38.5 days; mean body weight reduction [2, 9]: ca. −18.5%
C/C=C\C[C@@H](C/C=C\NC(=O)[C@@H](NC(=O)\C=C/C=C\C(C)=C\[C@H](C)[C@@H]1CC=C(OC)C(=O)O1)C(C)(C)C)OC(N)=O [PM060184, reference compound]	140.5 (123.0-157.3) mm3	59.2 (50.7-84.2) mm3	63.8 (43.6-80.0) mm3	265.7 (195.2-284.3) mm3	650.2 (516.7-732.6) mm3	47 days	5.8	19	43	very strong, statistically significant tumor reduction	100.1 (80.6-119.0) mm3	97.8 (74.5-149.3) mm3	129.4 (83.5-172.3) mm3	631.0 (454.0-873.9) mm3	1470 (1470-1666) mm3	two	16	16.0	animals that reached a complete remission (n/10) ([1]; high-dose: PM060184 16 mg/kg): 6/10; body weight decrease ([1]; recorded on Day 2, PM060184 16 mg/kg): ca. −3.2%; animals with complete tumor remission (number out of 10) ([2]; PM060184 16 mg/kg): Four out of 10; Median survival time ([2]; high dose: PM060184 16.0, Comp. 2 2.0, Comp. 3 1.0 mg/kg): 37 days; Median survival time [2, 7]: 30 days; body weight decrease ([2]; recorded on Day 12, PM060184 16 mg/kg): ca. −6.8%
